The values that follow come from patent US20130225578A1, “7-CYCLYLQUINAZOLINE DERIVATIVES AND METHODS OF USE THEREOF” (AMBIT BIOSCIENCES CORPORATION, priority 2010, published 2013).

The structures appear in SMILES notation. pIC50, pKd: −log10 of the molar value.

As a reminder, the pKd is the Kd on a negative log10 scale, so that one unit is a factor of ten. Lower therefore signals a high Kd. As a reminder, the pIC50 is the IC50 on a negative log10 scale, so that one unit is a factor of ten.

Assay [1] concerns distinct kinases tested excluding mutant variants, typically 359 or 386 kinases. Briefly: Kinase panel competition binding, selectivity score. As to conditions: compound at 10 μM; fraction of kinases with inhibition of 90% or greater. On the procedure:
(§1) Competition binding assays used herein were developed, validated and performed as described in Fabian et al., Nature Biotechnology 2005, 23, 329-336. Kinases were produced as fusions to T7 phage (See, Fabian et al. or WO04/015142) or alternatively, the kinases were expressed in HEK-293 cells and subsequently tagged with DNA for PCR detection (See, WO08/005,310). For the binding assays, streptavidin-coated magnetic beads were treated with biotinylated affinity ligands for […] at rt to generate affinity resins. The liganded beads were blocked with excess biotin and washed with blocking buffer (SeaBlock (Pierce), 1% BSA, 0.05% Tween 20, 1 mM DTT) to remove unbound ligand and to reduce non-specific binding. Binding reactions were assembled by combining kinase, liganded affinity beads, and test compounds in 1× binding buffer (20% SeaBlock, 0.17×PBS, 0.05% Tween 20, 6 mM DTT). Test compounds were prepared as 100× stocks in DMSO and rapidly diluted into the aqueous environment. DMSO was added to control assays lacking a test compound. Primary screen interactions were performed in polypropylene 384-well plates in a final volume of 34 μL, while Kd determinations were performed in polystyrene 96-well plates in a final volume of 135 μL. The assay plates were incubated at room temperature with shaking for 1 hour, long enough for binding reactions to reach equilibrium, and the affinity beads were washed extensively with wash buffer (1×PBS, 0.05% Tween 20) to remove unbound protein. The beads were then resuspended in elution buffer (1×PBS, 0.05% Tween 20, 2 μM non-biotinylated affinity ligand) and incubated at room temperature with shaking for 30 min. The kinase concentration in the eluates was measured by quantitative PCR. Each kinase was tested individually against each compound. Kds were determined using eleven serial threefold dilutions. A selectivity score, which is a quantitative measure of selectivity of a compound against a panel of enzymes, may be calculated for a compound by dividing the number of enzymes for which a compound meets a set criteria, (for example, a binding constant of 100 nM or less), by the total number of enzymes tested.

Another assay addresses T1, JAK3 (Homo sapiens, UniProt P52333).
T1 construct: made in house; host or cells: T7 phage display or HEK-293 cells (alternatives)
T1 sequence (P52333 1-1124): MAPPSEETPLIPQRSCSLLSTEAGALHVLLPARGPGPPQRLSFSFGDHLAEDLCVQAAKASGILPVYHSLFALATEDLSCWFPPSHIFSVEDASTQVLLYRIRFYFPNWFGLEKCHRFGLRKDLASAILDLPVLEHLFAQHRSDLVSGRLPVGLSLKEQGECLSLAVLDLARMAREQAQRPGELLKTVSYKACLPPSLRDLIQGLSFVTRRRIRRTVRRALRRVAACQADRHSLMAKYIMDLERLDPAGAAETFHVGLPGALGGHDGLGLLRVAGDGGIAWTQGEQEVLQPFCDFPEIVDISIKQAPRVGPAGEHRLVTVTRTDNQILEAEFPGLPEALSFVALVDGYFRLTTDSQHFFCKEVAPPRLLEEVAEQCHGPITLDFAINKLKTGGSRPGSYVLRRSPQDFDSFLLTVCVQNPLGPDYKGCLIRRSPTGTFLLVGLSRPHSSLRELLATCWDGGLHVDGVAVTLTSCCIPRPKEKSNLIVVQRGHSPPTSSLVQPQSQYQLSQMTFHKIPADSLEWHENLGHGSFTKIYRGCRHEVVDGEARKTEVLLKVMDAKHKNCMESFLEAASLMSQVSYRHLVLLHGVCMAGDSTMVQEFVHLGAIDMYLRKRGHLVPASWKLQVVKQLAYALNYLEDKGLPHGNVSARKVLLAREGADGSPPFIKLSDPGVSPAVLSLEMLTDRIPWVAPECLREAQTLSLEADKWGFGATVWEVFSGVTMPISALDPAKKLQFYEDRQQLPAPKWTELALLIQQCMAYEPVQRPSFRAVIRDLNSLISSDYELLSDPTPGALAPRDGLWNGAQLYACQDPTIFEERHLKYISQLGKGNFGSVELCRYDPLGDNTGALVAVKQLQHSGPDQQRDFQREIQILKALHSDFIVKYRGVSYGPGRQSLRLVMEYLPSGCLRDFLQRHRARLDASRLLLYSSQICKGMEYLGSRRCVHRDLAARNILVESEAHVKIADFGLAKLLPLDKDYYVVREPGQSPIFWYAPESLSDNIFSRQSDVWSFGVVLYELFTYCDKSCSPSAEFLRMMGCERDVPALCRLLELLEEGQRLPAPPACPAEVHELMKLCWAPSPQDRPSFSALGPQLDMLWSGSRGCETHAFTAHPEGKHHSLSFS
Briefly: Competition binding assay, JAK3. The method, then: as §1

A further assay deals with T2, JAK2 (Homo sapiens, UniProt O60674).
T2 construct: made in house; host or cells: T7 phage display or HEK-293 cells (alternatives)
The experiment in a line: Competition binding assay, JAK2. On the procedure:
as §1

A further assay concerns the target T3, TYK2 (Homo sapiens, UniProt P29597).
T3 construct: made in house; host or cells: T7 phage display or HEK-293 cells (alternatives)
The experiment in a line: Competition binding assay, TYK2. The method, then:
as §1

The subject of assay [2] is GM-CSFR/JAK2/STAT5 pathway. Briefly: CSTF-1 cell-based reporter assay (beta-lactamase reporter, GM-CSF stimulated). As to conditions: Homo sapiens; csTF-1 cells, GM-CSF 2 ng/mL, 4 hours; read-out: Cell Assay: CS TF-1 reporter assay IC50. On the procedure: CSTF-1 cells are derived from the human erythroleukemia cell line that is growth dependent on GM-CSF and has an intact GM-CSFR/JAK2/STAT5 pathway. The cell line contains stably integrated beta-lactamase reporter gene under the control of the […] (irf 1) response element recognized by the activated transcription factor STAT5. csTF-1 cells (Invitrogen K1219) were washed with assay media (97% OPTIMEM/0.5% dialyzed FBS/0.1 mM NEAA/1 mM Na pyr/P/S) and seeded in the same media at 5×10^5 cell/mL in T150 flask. After 16 hour incubation, cells were seeded at 2×10^5 cell/well in 50 jtl volume, into Costar, clear bottom, 96-well assay plates. Serial dilutions of compounds were added to the plates with final DMSO concentration at 0.5% and GM-CSF at 2 ng/mL and the plates were then incubated at 30° C. and 5% CO2 for 4 hours. The plates were brought to room temperature before adding Substrate Mixture according to manufacturer's protocol (Invitrogen, Catalog #K1085). The assay plates containing the substrate mixture were incubated in the dark at room temperature for 2 hours. Blue and green fluorescence was measured with excitation at 409 nm and emission at 460 nm (for blue) and excitation at 409 nm and emission at 530 nm (for green) using Spectra Max Gemini EM.
Background: Reporter assays use an easily measured gene product as a stand-in for the process of interest.

T3 sequence (P29597 whole entry): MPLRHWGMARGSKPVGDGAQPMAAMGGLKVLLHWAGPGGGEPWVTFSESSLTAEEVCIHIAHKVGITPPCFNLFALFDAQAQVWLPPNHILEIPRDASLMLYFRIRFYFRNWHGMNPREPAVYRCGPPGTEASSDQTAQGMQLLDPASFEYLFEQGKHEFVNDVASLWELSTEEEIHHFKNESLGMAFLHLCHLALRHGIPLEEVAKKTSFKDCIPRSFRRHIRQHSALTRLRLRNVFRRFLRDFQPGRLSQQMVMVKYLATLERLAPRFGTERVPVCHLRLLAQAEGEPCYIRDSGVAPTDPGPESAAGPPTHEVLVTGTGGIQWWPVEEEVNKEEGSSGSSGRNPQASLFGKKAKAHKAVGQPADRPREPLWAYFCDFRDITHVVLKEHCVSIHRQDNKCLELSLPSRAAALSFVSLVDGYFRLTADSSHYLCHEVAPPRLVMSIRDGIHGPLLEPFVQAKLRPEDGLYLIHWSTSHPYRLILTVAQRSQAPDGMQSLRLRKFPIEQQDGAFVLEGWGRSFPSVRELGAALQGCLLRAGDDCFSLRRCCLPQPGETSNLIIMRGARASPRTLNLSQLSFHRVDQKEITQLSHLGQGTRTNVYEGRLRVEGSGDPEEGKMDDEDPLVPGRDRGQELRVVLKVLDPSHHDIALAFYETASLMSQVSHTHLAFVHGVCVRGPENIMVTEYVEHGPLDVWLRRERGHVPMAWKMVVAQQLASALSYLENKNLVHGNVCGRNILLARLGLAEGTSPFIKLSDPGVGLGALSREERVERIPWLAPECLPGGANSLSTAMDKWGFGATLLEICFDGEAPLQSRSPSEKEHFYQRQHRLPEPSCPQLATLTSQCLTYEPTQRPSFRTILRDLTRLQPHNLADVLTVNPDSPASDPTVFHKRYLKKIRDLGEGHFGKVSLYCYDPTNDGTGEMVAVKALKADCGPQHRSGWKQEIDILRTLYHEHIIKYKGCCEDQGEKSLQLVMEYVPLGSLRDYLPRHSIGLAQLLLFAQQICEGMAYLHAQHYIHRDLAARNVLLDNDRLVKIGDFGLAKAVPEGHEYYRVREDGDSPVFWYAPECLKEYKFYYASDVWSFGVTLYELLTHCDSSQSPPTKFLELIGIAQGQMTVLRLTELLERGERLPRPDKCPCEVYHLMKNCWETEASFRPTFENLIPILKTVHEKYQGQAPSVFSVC
T2 sequence (O60674 whole entry): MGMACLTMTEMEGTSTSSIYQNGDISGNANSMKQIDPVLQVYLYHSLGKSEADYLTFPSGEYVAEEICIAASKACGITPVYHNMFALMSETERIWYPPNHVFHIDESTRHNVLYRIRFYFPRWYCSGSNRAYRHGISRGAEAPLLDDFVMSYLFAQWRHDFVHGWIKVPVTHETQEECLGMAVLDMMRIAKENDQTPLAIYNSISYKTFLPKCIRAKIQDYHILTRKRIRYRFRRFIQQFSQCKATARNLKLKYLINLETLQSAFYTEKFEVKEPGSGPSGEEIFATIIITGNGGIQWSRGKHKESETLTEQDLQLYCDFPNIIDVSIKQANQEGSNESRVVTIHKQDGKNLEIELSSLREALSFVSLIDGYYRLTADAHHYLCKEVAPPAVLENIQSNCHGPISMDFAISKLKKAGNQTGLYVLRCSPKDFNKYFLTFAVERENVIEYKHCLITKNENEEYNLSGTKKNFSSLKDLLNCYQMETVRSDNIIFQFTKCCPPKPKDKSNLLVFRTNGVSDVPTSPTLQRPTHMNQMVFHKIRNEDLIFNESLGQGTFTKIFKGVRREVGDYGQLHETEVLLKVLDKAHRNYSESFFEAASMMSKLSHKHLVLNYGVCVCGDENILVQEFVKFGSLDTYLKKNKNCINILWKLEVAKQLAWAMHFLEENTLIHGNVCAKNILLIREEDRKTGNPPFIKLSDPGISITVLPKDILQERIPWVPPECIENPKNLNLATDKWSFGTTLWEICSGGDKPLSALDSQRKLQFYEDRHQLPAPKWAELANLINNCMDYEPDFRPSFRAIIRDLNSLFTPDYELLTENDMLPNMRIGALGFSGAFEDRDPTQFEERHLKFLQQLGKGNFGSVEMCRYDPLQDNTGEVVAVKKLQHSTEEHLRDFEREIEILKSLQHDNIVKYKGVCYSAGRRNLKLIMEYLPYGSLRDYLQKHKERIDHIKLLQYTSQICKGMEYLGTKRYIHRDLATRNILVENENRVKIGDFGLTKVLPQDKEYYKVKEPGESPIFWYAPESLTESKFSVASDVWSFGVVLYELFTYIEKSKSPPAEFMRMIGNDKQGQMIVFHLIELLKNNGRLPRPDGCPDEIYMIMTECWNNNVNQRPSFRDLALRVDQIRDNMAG

Take `Cc1cc(Nc2nc(C(F)(F)c3ccc(F)cc3)nc3cc(-c4cnn(C)c4)ccc23)n[nH]1` [Example 1, 2-(difluoro(4-fluorophenyl)methyl)-N-(5-methyl-1H-pyrazol-3-yl)-7-(1-methyl-1H-pyrazol-4-yl)quinazolin-4-amine]: the “S-Score: S(10) at 10 μM” value in assay [1] is reported as “A (A≦0.3)”. The pKd on JAK3 is ≥ 8.00; at JAK2, ≥ 9.00; at TYK2, ≥ 8.00. Further, the negative-log IC50 (pIC50) in assay [2] is ≥ 7.00.
As to `Cc1cc(Nc2nc(C(F)(F)c3ccc(F)cc3)nc3cc(-c4cncnc4)ccc23)n[nH]1` [Example 2, 2-(difluoro(4-fluorophenyl)methyl)-N-(5-methyl-1H-pyrazol-3-yl)-7-(pyrimidin-5-yl)quinazolin-4-amine], the “S-Score: S(10) at 10 μM” value in assay [1] is listed as “A (A≦0.3)”. The pKd was ≥ 8.00 at JAK3, ≥ 9.00 on JAK2 and ≥ 8.00 at TYK2. Also, the negative logarithm of the IC50 (pIC50) in assay [2] was ≥ 7.00.
`Cc1cc(Nc2nc(C(F)(F)c3ccc(F)cc3)nc3cc(C4(O)COC4)ccc23)n[nH]1` [Example 3, 3-(2-(difluoro(4-fluorophenyl)methyl)-4-(5-methyl-1H-pyrazol-3-ylamino)quinazolin-7-yl)oxetan-3-ol]: the “S-Score: S(10) at 10 μM” value in assay [1] is given as “D (D>0.5)”. The negative-log Kd (pKd) at JAK3 was ≥ 8.00; at JAK2, ≥ 9.00; at TYK2, ≥ 8.00. In assay [2], the pIC50 is ≥ 7.00.
In the case of `Cc1cc(Nc2nc(C(F)(F)c3ccc(F)cc3)nc3cc(C4=CCOCC4)ccc23)n[nH]1` [Example 4, 2-(difluoro(4-fluorophenyl)methyl)-7-(3,6-dihydro-2H-pyran-4-yl)-N-(5-methyl-1H-pyrazol-3-yl)quinazolin-4-amine], in assay [1], the “S-Score: S(10) at 10 μM” value is recorded as “A (A≦0.3)”. In addition, the pKd was ≥ 8.00 on JAK3, 8.00 to 9.00 on JAK2 and ≥ 8.00 on TYK2. Also, in assay [2], the pIC50 is 6.30 to 7.00.
As for `Cc1cc(Nc2nc(C(F)(F)c3ccc(F)cc3)nc3cc(-c4ccccc4O)ccc23)n[nH]1` [Example 5, 2-(2-(difluoro(4-fluorophenyl)methyl)-4-(5-methyl-1H-pyrazol-3-ylamino)quinazolin-7-yl)phenol], the “S-Score: S(10) at 10 μM” value in assay [1] is given as “A (A≦0.3)”. Moreover, the pKd is 7.00 to 8.00 on JAK3, 8.00 to 9.00 at JAK2 and 7.00 to 8.00 at TYK2. The pIC50 in assay [2] was 6.30 to 7.00.
`Cc1cc(Nc2nc(C(F)(F)c3ccc(F)cc3)nc3cc(-c4c(C)noc4C)ccc23)n[nH]1` [Example 6, 2-(difluoro(4-fluorophenyl)methyl)-7-(3,5-dimethylisoxazol-4-yl)-N-(5-methyl-1H-pyrazol-3-yl)quinazolin-4-amine]: the “S-Score: S(10) at 10 μM” value in assay [1] is “B (0.3≦B≦0.4)”. Further, the negative logarithm of the Kd (pKd) is ≥ 8.00 at JAK3, 8.00 to 9.00 on JAK2 and ≥ 8.00 on TYK2. In addition, the pIC50 in assay [2] was 6.30 to 7.00.
As for `Cc1cc(Nc2nc(C(F)(F)c3ccc(F)cc3)nc3cc(N4C[C@H](O)CC4=O)ccc23)n[nH]1` [Example 7, (R)-1-(2-(difluoro(4-fluorophenyl)methyl)-4-(5-methyl-1H-pyrazol-3-ylamino)quinazolin-7-yl)-4-hydroxypyrrolidin-2-one], the “S-Score: S(10) at 10 μM” value in assay [1] is given as “D (D>0.5)”. For the same compound, the values for the negative logarithm of the Kd (pKd) at JAK3, on JAK2 and on TYK2 were ≥ 8.00, ≥ 9.00 and ≥ 8.00, respectively. In addition, the pIC50 in assay [2] was 6.30 to 7.00.
On to `Cc1cc(Nc2nc(C(F)(F)c3ccc(F)cc3)nc3cc(CN4CCOCC4)ccc23)n[nH]1` [Example 8, 2-(difluoro(4-fluorophenyl)methyl)-N-(5-methyl-1H-pyrazol-3-yl)-7-(morpholinomethyl)quinazolin-4-amine], for which the “S-Score: S(10) at 10 μM” value in assay [1] is listed as “D (D>0.5)”. Besides, the figures for the pKd at JAK3, on JAK2 and on TYK2 were ≥ 8.00, ≥ 9.00 and ≥ 8.00, respectively. The negative logarithm of the IC50 (pIC50) in assay [2] was ≥ 7.00.
